Literature values as cited in patent US20240415845A1, “Compositions of Iboga Alkaloids and Methods of Treatment” (priority 2022, published 2024).

Details: in vivo; cited from earlier work

CC[C@H]1CC2C[C@H]3c4[nH]c5ccc(O)cc5c4CCN(C2)C13 [noribogaine, Noribogaine]
half-life: 28 to 49 h
